Test results reported in patent US20250073210A1, “Use of Ergothioneine for Enhancing Glutathione Level” (priority 2022, published 2025).

Columns and labels:
[1] = Preliminary cytotoxicity assay (WST-8 reduction, viability and morphological observations); format: cell-based, human; details: human
Description: (§1) In the present study, the effects of compound L-Ergothioneine were investigated in normal human epidermal keratinocytes (NHEK) under basal or UV-irradiated conditions. More specifically, the effects of this compound were evaluated using RT-qPCR technology. Extracted mRNA was analyzed using a PCR array (“mQPA-8-Nrf2”) for the analysis of 8 target genes (including 1 housekeeping gene) selected for their role in Nrf2 pathway. Prior to this assay, a preliminary cytotoxicity assay was performed on compound L-Ergothioneine and Resveratrol (reference in basal condition) using a standard WST-8 reduction assay, in order to determine the concentrations to be tested in this study.
(§2) Cell type: Normal human epidermal keratinocytes (NHEK) used at the 3rd passage. Culture conditions: 37° C., 5% CO2. Culture medium: Keratinocyte-SFM optimized for the assay, supplemented with Epidermal Growth Factor Pituitary extract. Assay medium: Keratinocyte-SFM optimized for the assay. Test compound: L-Ergothioneine in ultrapure water. Test concentrations: 0.5, 3 and 30 μM. Reference: Resveratrol. Test concentration: 20 μM.
(§3) Cell type: NHEK in assay medium. Incubation time: 24 hours.
(§4) After treatment, the cells were incubated with WST-8 (highly water-soluble tetrazolium salt) reduced in a water-soluble orange colored product (formazan) by succinate dehydrogenase (mitochondrial enzyme). This transformation is proportional to the number of living cells and their metabolic activity. The optical density (OD) of the extracts at 450 nm was recorded with a spectrometer (VERSAmax, Molecular Devices).

[2] = tested on: normal human epidermal keratinocytes (NHEK); test: as above; format: cell-based; details: human, 24 h
Description: as §1, §2, §3, §4

RPS28 = test: RT-qPCR PCR array mQPA-8-Nrf2, housekeeping gene RPS28; format: cell-based, human
Description: as §1, §2
(§5) Keratinocytes were seeded in 24-well plates and cultured for 24 hours in culture medium and in assay medium for a further 24 hours. The medium was then replaced by assay medium containing or not (control) the compound or Resveratrol and cells were pre-incubated for 24 hours.
(§6) After pre-incubation, the medium was then removed and replaced by a PBS solution. For basal conditions, the plate was kept in the dark during the irradiation time. For irradiated conditions, the cells were irradiated with UVB−275 mJ/cm^2 (+UVA−2 J/cm^2) using a SOL500 Sun Simulator equipped with an H2 filter (Dr. Hönle, AG). After irradiation time, the treatments were renewed, and the cells were incubated for 24 hours. All experimental conditions were performed in n=3. At the end of incubation, the cells were washed in phosphate buffered saline (PBS) solution and immediately frozen at −80° C.
(§7) The expression of markers was analyzed using RT-qPCR method on total RNA extracted from the cell monolayers of each experimental condition (before RNA extraction, the replicates of the same experimental condition were pooled). The analysis of transcripts was performed in n=2 using a PCR array dedicated to research and adapted to ‘screening’ format and targeting 8 genes selected for their role in Nrf2 pathway.
(§8) Total RNA was extracted from each sample using TriPure Isolation Reagent® according to the supplier's instructions. The amount and quality of RNA were evaluated using capillary electrophoresis (Bioanalyzer 2100, Agilent technologies). The complementary DNA (cDNA) was synthetized by reverse transcription of total RNA in presence of oligo(dT) and «Transcriptor Reverse Transcriptase» (Roche Molecular System Inc.). The cDNA quantities were then adjusted before PCR.
(§9) The PCR (Polymerase Chain Reaction) were performed using the «LightCycler®» system (Roche Molecular System Inc.) according to the supplier's instructions. The reaction mix (10 μl final) was prepared as follows: 2.5 μl of cDNA; primers (forward and reverse); reagent mix (Roche) containing taq DNA polymerase, SYBR Green I and MgCl2.
(§10) The incorporation of fluorescence in amplified DNA was continuously measured during the PCR cycles. […] The value selected for RE calculations is the “output point” (Ct) of the fluorescence curve. For a considered marker, the highest is the cycle number; the lowest is the mRNA quantity. The RE value was calculated with the formula: (½^number of cycles)×10^6. The PCR array used in the present study included 1 reference gene (RPS28).

NQO1 = test: RT-qPCR PCR array mQPA-8-Nrf2, NQO1 expression in NHEK; format: cell-based, human
Description: as §1, §2, §5, §6, §7, §8, §9, §10

HMOX1 = test: RT-qPCR PCR array mQPA-8-Nrf2, HMOX1 expression in NHEK; format: cell-based, human
Description: as §1, §2, §5, §6, §7, §8, §9, §10

MT1G = test: RT-qPCR PCR array mQPA-8-Nrf2, MT1G expression in NHEK; format: cell-based, human
Description: as §1, §2, §5, §6, §7, §8, §9, §10

TXN = test: RT-qPCR PCR array mQPA-8-Nrf2, TXN expression in NHEK; format: cell-based, human
Description: as §1, §2, §5, §6, §7, §8, §9, §10

TXNRD1 = test: RT-qPCR PCR array mQPA-8-Nrf2, TXNRD1 expression in NHEK; format: cell-based, human
Description: as §1, §2, §5, §6, §7, §8, §9, §10

GCLC = test: RT-qPCR PCR array mQPA-8-Nrf2, GCLC expression in NHEK; format: cell-based, human
Description: as §1, §2, §5, §6, §7, §8, §9, §10

GCLM = test: RT-qPCR PCR array mQPA-8-Nrf2, GCLM expression in NHEK; format: cell-based, human
Description: as §1, §2, §5, §6, §7, §8, §9, §10

Nrf2 pathway = test: Gene expression profile of keratinocytes (mQPA-8-Nrf2 array as a whole); format: cell-based, human
Description: as §1, §2, §5, §6, §7

[3] = UV-irradiated (UVB-275 mJ/cm^2 +UVA-2 J/cm^2), 0.5 μM
[4] = UV-irradiated (UVB-275 mJ/cm^2 +UVA-2 J/cm^2), 3 μM
[5] = UV-irradiated (UVB-275 mJ/cm^2 +UVA-2 J/cm^2), 30 μM

In the case of `C[N+](C)(C)[C@@H](Cc1c[nH]c(=S)[nH]1)C(=O)[O-]` [L-Ergothioneine, (2S)-3-(2-thioxo-2,3-dihydro-1H-imidazol-4-yl)-2-(trimethylammonio)-propanoate], the viability at 24 h, 2.2 µM ([1]; Viability (%)) is reported as 97%, the viability at 24 h, 6.7 µM ([1]; Viability (%)) is reported as 98% and the viability at 24 h, 20 µM ([1]; Viability (%)) is reported as 99%. For the same molecule, the viability at 24 h, 60 µM ([1]; Viability (%)) was 100%, the viability at 24 h, 180 µM ([1]; Viability (%)) was 99% and the viability at 24 h, 540 µM ([1]; Viability (%)) was 100%. For the same molecule, the viability at 24 h, 1620 µM ([1]; Viability (%)) was 89%, the viability at 24 h, 4860 µM ([1]; Viability (%)) was 82% and the viability at 24 h, 2.2 µM ([1]; Viability Mean (%)) was 100%. The viability at 24 h, 6.7 µM ([1]; Viability Mean (%)) was 99%, the viability at 24 h, 20 µM ([1]; Viability Mean (%)) was 99% and the viability at 24 h, 60 µM ([1]; Viability Mean (%)) was 99%. The viability at 24 h, 180 µM ([1]; Viability Mean (%)) was 97%, the viability at 24 h, 540 µM ([1]; Viability Mean (%)) was 66% and the viability at 24 h, 1620 µM ([1]; Viability Mean (%)) was 92%. For the same molecule, the viability at 24 h, 4860 µM ([1]; Viability Mean (%)) was 83%, the “Viability (%)” value ([2]; 2.2 µM) was 105% and the “Viability (%)” value ([2]; 6.7 µM) was 101%. For the same molecule, the “Viability (%)” value ([2]; 20 µM) was 102%, the “Viability (%)” value ([2]; 180 µM) was 95% and the “Viability (%)” value ([2]; 4860 µM) was 79%. For the same molecule, the “RPS28 % Control RPS28” value (RPS28; [3]) was 100 % Control, the “RPS28 % Control RPS28” value (RPS28; [4]) was 100 % Control and the “RPS28 % Control RPS28” value (RPS28; [5]) was 100 % Control. For the same molecule, the “RPS28 % Control RPS28” value (RPS28; basal conditions, 0.5 μM) was 100 % Control, the “RPS28 % Control RPS28” value (RPS28; basal conditions, 3 μM) was 100 % Control and the “RPS28 % Control RPS28” value (RPS28; basal conditions, 30 μM) was 100 % Control. For the same molecule, the “NQO1 % Control RPS28” value (NQO1; [3]) was 118 % Control, the “NQO1 % Control RPS28” value (NQO1; [4]) was 136 % Control and the “NQO1 % Control RPS28” value (NQO1; [5]) was 207 % Control. The “NQO1 % Control RPS28” value (NQO1; basal conditions, 0.5 μM) was 127 % Control, the “NQO1 % Control RPS28” value (NQO1; basal conditions, 3 μM) was 131 % Control and the “NQO1 % Control RPS28” value (NQO1; basal conditions, 30 μM) was 155 % Control. The “HMOX1 % Control RPS28” value (HMOX1; [3]) was 104 % Control, the “HMOX1 % Control RPS28” value (HMOX1; [4]) was 109 % Control and the “HMOX1 % Control RPS28” value (HMOX1; [5]) was 141 % Control. For the same molecule, the “HMOX1 % Control RPS28” value (HMOX1; basal conditions, 0.5 μM) was 86 % Control, the “HMOX1 % Control RPS28” value (HMOX1; basal conditions, 3 μM) was 91 % Control and the “HMOX1 % Control RPS28” value (HMOX1; basal conditions, 30 μM) was 98 % Control. For the same molecule, the “MT1G % Control RPS28” value (MT1G; [3]) was 81 % Control, the “MT1G % Control RPS28” value (MT1G; [4]) was 94 % Control and the “MT1G % Control RPS28” value (MT1G; [5]) was 102 % Control. For the same molecule, the “MT1G % Control RPS28” value (MT1G; basal conditions, 0.5 μM) was 113 % Control, the “MT1G % Control RPS28” value (MT1G; basal conditions, 3 μM) was 99 % Control and the “MT1G % Control RPS28” value (MT1G; basal conditions, 30 μM) was 115 % Control. The “TXN % Control RPS28” value (TXN; [3]) was 89 % Control, the “TXN % Control RPS28” value (TXN; [4]) was 99 % Control and the “TXN % Control RPS28” value (TXN; [5]) was 101 % Control. The “TXN % Control RPS28” value (TXN; basal conditions, 0.5 μM) was 87 % Control, the “TXN % Control RPS28” value (TXN; basal conditions, 3 μM) was 83 % Control and the “TXN % Control RPS28” value (TXN; basal conditions, 30 μM) was 98 % Control. For the same molecule, the “TXNRD1 % Control RPS28” value (TXNRD1; [3]) was 99 % Control, the “TXNRD1 % Control RPS28” value (TXNRD1; [4]) was 97 % Control and the “TXNRD1 % Control RPS28” value (TXNRD1; [5]) was 120 % Control. For the same molecule, the “TXNRD1 % Control RPS28” value (TXNRD1; basal conditions, 0.5 μM) was 75 % Control, the “TXNRD1 % Control RPS28” value (TXNRD1; basal conditions, 3 μM) was 72 % Control and the “TXNRD1 % Control RPS28” value (TXNRD1; basal conditions, 30 μM) was 82 % Control. The “GCLC % Control RPS28” value (GCLC; [3]) was 106 % Control, the “GCLC % Control RPS28” value (GCLC; [4]) was 126 % Control and the “GCLC % Control RPS28” value (GCLC; [5]) was 181 % Control. For the same molecule, the “GCLC % Control RPS28” value (GCLC; basal conditions, 0.5 μM) was 111 % Control, the “GCLC % Control RPS28” value (GCLC; basal conditions, 3 μM) was 118 % Control and the “GCLC % Control RPS28” value (GCLC; basal conditions, 30 μM) was 140 % Control. For the same molecule, the “GCLM % Control RPS28” value (GCLM; [3]) was 76 % Control, the “GCLM % Control RPS28” value (GCLM; [4]) was 86 % Control and the “GCLM % Control RPS28” value (GCLM; [5]) was 86 % Control. The “GCLM % Control RPS28” value (GCLM; basal conditions, 0.5 μM) was 95 % Control, the “GCLM % Control RPS28” value (GCLM; basal conditions, 3 μM) was 97 % Control and the “GCLM % Control RPS28” value (GCLM; basal conditions, 30 μM) was 98 % Control. For the same molecule, the “Modulation of the gene expression profile of irradiated keratinocytes” value (Nrf2 pathway; UVB (+UVA) irradiated, tested at 0.5, 3 and 30 μM) was “did not induce major modulations”, the “Effect on gene expression, basal keratinocytes” value (Nrf2 pathway; basal, lowest tested concentrations) was “no effect was observed” and the “Modulation of the gene expression profile of basal keratinocytes” value (Nrf2 pathway; basal, tested at 0.5, 3 and 30 μM) was “did not induce major modulations”. For the same molecule, the “Effect on gene expression, irradiated keratinocytes” value (Nrf2 pathway; irradiated, lowest tested concentrations) was “no effect was observed”.
